Test results taken from US20120172344A1, “INSULIN-PRODUCING CELL INDUCER, GLUCOSE INTAKE ENHANCER, AND THERAPEUTIC AGENT FOR DIABETES OR DIABETES COMPLICATIONS” (KYUSHU UNIVERSITY, NATIONAL UNIVERSITY CORPORATION, priority 2009, published 2012).

Experiments:
[1] = system: Tg23 mice (diabetic nephropathy); test: Experimental Example 2: effect of estradiol on second to third stage of diabetic nephropathy; format: in vivo, mouse
Method: (a) Albumin concentration: Albuwellkit (Exocell),
(b) Creatinine: High-performance liquid chromatography (HPLC), and
(c) Creatinine clearance (Ccr): calculated by the next formula.
Ccr=urine creatinine (mg/dL)×urine volume (μL/min)/serum creatinine (mg/dL)/body weight (g). [Math. 1]
50 glomeruli were analyzed for each of the mice. The total area of the glomeruli was measured in PAS-stained sections using Image-Pro Plus (Media Cybernetics). The PAS-positive area fraction was calculated as the ratio of PAS-positive area to glomerular sectional surface area. Glomerular number was measured by counting all of the glomeruli per mid-transverse section of left kidney for each of the mice.
For Tg23 mice, at 20-35 weeks of age, which is when reduction in renal functions and renal lesions are observed, a single pellet of 17β-estradiol was subcutaneously administered, and the effect of estradiol was investigated. […]
PAS staining, and immunostaining using the anti-collagen type IV antibody were performed on glomerular tissues from each of the mice (48 weeks of age), and the results of the staining are shown respectively in FIG. 2(1) and FIG. 2(2). […] The expression intensity was measured in random fields (n=30/section) of the glomerulus, and the result was expressed as average pixel intensity.

[2] = system: Tg23 mice; test: Experimental Example 4: blood glucose, blood parameters, food consumption and oral glucose tolerance test; format: in vivo, mouse; details: for blood glucose level: Tg23 mice 11 weeks of age
Method: Blood glucose levels were measured by an enzyme-electrode method with ONE TOUCH UltraVue (Johnson & Johnson K.K.) on whole blood taken from tail veins of subject animals.
Immediately before collecting organs, blood parameters were measured using various methods and measurement kits described below in blood collected from the hearts of animals anesthetized with nembutal.
(c) Blood urea nitrogen (BUN): Urease UV method,
(d) Aspartate aminotransferase (AST) and alanine aminotransferase (ALT): JSCC standardization method,
(e) Serum insulin concentration: Enzyme-linked immunosorbent assay kit (Morinaga Institute of Biological Science),
(f) Serum glucagon concentration: YK142 Mouse […] EIA kit (Yanaihara Institute Inc.),
(g) Total serum cholesterol level: Enzymatic assay reagent (Wako Pure Chemical Industries),
After a 16-hour fast, mice were administered with glucose (1 g/kg of body weight) by gavage. Blood samples were collected from the tail vein at 0, 15, 30, 60, 90, and 120 minutes after the oral administration, and blood glucose levels were measured. In addition, blood samples were collected from the tail vein in a similar manner at 0, 15, and 30 minutes after the oral administration, and serum insulin concentrations were measured.
Subject mice were individually housed in metabolic cages for four days to assess food consumption (g/24 h) and water consumption (ml/24 h). During measurement, food and water were supplied to the mice ad libitum. Measurements were repeated three times for each group.
Tg23 mice (11 weeks of age) were divided into four groups (each group: n=4 to 10): an estradiol administration group (E only group), a testectomy group (Tx only group), a testectomy-and-estradiol administration group (Tx+E group), and a control group (Tg group). For E only group, sham surgery of testectomy (Tx) was performed, and a single pellet of 17β-estradiol (E) was subcutaneously administered at the nape of the neck. […] For Tx+E group, testectomy was performed, and a single pellet of 17β-estradiol was subcutaneously administered at the nape of the neck.
Then, blood glucose levels (mg/dl) were measured every week for E only group, Tx only group, Tx+E group, and Tg group, and wild-type mice (WT). In addition, measurements were performed with Tx+E group, Tg group, and wild-type mice (WT), for serum insulin concentrations (pg/mL), serum glucagon concentrations (pg/mL), blood urea nitrogen (BUN) concentrations (mg/dL), total serum cholesterol levels ([…]), aspartate aminotransferase (AST)/alanine aminotransferase (ALT), and food consumption per day (g/day). Furthermore, oral glucose tolerance test was performed, and changes in blood glucose level and serum insulin concentration over time were measured.

[3] = Tx+E mice, glucose 1 g/kg by gavage after 16-hour fast

C[C@]12CC[C@@H]3c4ccc(O)cc4CC[C@H]3[C@@H]1CC[C@@H]2O [estradiol, 17β-estradiol]
sclerosis of the glomeruli (PAS staining, collagen IV immunostaining) ([1]; Tg23 mice treated at 24 weeks of age (Tx + single 17β-estradiol pellet s.c.), tissues at 48 weeks of age): alleviated to a degree not different from wild-type mice | renal functions and renal tissues (GFR, Ualb/Cr, kidney weight, urinary glucose, urine volume) ([1]; Tg23 mice, second stage of diabetic nephropathy (early nephropathia stage), Tx + single 17β-estradiol pellet s.c.): dramatically improves | blood glucose level ([2]; E only group (sham surgery + 17β-estradiol pellet s.c.)): effective for reducing blood glucose level | blood glucose level ([2]; Tx+E group (testectomy + 17β-estradiol pellet s.c.)): effective for reducing blood glucose level | AST/ALT ([2]; Tx+E mice): returned to normal | blood urea nitrogen (BUN) ([2]; Tx+E mice): returned to normal | food consumption per day ([2]; Tx+E mice): returned to normal | serum glucagon ([2]; Tx+E mice): returned to normal | serum insulin level ([2]; Tx+E mice): largely increased | total serum cholesterol ([2]; Tx+E mice): returned to normal | blood glucose level in oral glucose tolerance test [2, 3]: returned to basal level after a time point of 180 minutes | insulin secretion in oral glucose tolerance test [2, 3]: increased
